Reference: ChEMBL document CHEMBL4024732, “Discovery of a novel and potent class of anti-HIV-1 maturation inhibitors with improved virology profile against gag polymorphisms” (Bioorg Med Chem Lett, 2017)
Calls of active or inactive are those of the source. The rule behind the calls is not given here.

Assays:
[1] = Inhibition of bevirimat-resistant HIV1 clade B NL4-3 CA-SP1 V370A mutant infected in human MT4 cells; format: cell-based; conditions: Human immunodeficiency virus 1, clade B NL4-3, MT4
[2] = Inhibition of wild type HIV-1 clade B NL4-3 Gag polyprotein SP1 infected in human MT4 cells; format: cell-based; conditions: Human immunodeficiency virus 1, clade B NL4-3, MT4
[3] = Inhibition of bevirimat-resistant HIV1 clade B NL4-3 CA-SP1 T371A mutant infected in human MT4 cells; format: cell-based; conditions: Human immunodeficiency virus 1, clade B NL4-3, MT4
[4] = Inhibition of bevirimat-resistant HIV1 clade B NL4-3 CA-SP1 Q369H mutant infected in human MT4 cells; format: cell-based; conditions: Human immunodeficiency virus 1, clade B NL4-3, MT4
[5] = test system: Human immunodeficiency virus 1; experiment: Antiviral activity against HIV1 isolate 96USNG031 infected in human PBMC; format: functional; conditions: Human immunodeficiency virus 1, isolate 96USNG031
[6] = Inhibition of bevirimat-resistant HIV-1 clade A isolate I-2496 V370A mutant infected in human PBMC after 7 days by scintillation counting method; conditions: Human immunodeficiency virus 1, clade A isolate I-2496, 168 h
[7] = test system: Human immunodeficiency virus 1; experiment: Ratio of compound effect in presence of 40% human serum to compound effect in absence of serum for antiviral activity against HIV1 by cell based assay; format: functional
[8] = Inhibition of bevirimat-resistant HIV-1 clade B isolate CC1/85 CA-SP1 V370A mutant infected in human PBMC measured after 7 days by scintillation counting method; conditions: Human immunodeficiency virus 1, clade B isolate CC1/85, 168 h
[9] = test system: Human immunodeficiency virus 1; experiment: Antiviral activity against HIV1 isolate 96THNP1538 infected in human PBMC; format: functional; conditions: Human immunodeficiency virus 1, isolate 96THNP1538
[10] = Inhibition of bevirimat-resistant HIV-1 clade B isolate ASJM108 Gag V370A mutant infected in human PBMC after 7 days by scintillation counting method; conditions: Human immunodeficiency virus 1, clade B isolate ASJM108, 168 h
[11] = test system: Human immunodeficiency virus 1; experiment: Antiviral activity against HIV1 isolate 00KEKR1008 infected in human PBMC; format: functional; conditions: Human immunodeficiency virus 1, isolate 00KEKR1008
[12] = test system: Human immunodeficiency virus 1; experiment: Antiviral activity against HIV1 isolate 91BR014 infected in human PBMC; format: functional; conditions: Human immunodeficiency virus 1, isolate 91BR014
[13] = Cytotoxicity against human MT4 cells; format: cell-based
[14] = test system: Human immunodeficiency virus 1; experiment: Antiviral activity against HIV1 isolate 01ET188 infected in human PBMC; format: functional; conditions: Human immunodeficiency virus 1, isolate 01ET188
[15] = test system: Human immunodeficiency virus 1; experiment: Inhibition of HIV1 Gag CA-SP1 cleavage infected in human PBMC at 0.0001 to 10 uM measured after 8 days post infection by Western blot analysis
[16] = test system: Human immunodeficiency virus 1; experiment: Inhibition of HIV1 Gag CA-SP1 cleavage infected in human PBMC at 10 uM measured after 8 days post infection by Western blot analysis

| Compound | IC50 [1] | IC50 [2] | IC50 [3] | IC50 [4] | other results |
| --- | --- | --- | --- | --- | --- |
| CC(C)C1=C2[C@H]3CC[C@@H]4[C@@]5(C)CC[C@H](OC(=O)CC(C)(C)C(=O)O)C(C)(C)[C@@H]5CC[C@@]4(C)[C@]3(C)CC[C@@]2(C(=O)C(=O)NCc2cccs2)CC1=O | 1620 nM | 21 nM |  |  |  |
| CC(C)C1=C2[C@H]3CC[C@@H]4[C@@]5(C)CC[C@H](OC(=O)CC(C)(C)C(=O)O)C(C)(C)[C@@H]5CC[C@@]4(C)[C@]3(C)CC[C@@]2(C(=O)C(=O)NC2(c3ccc(Cl)cc3)CCCC2)CC1=O | 110 nM | 66 nM | 33 nM | 100 nM |  |
| CC(C)C1=C2[C@H]3CC[C@@H]4[C@@]5(C)CC[C@H](OC(=O)CC(C)(C)C(=O)O)C(C)(C)[C@@H]5CC[C@@]4(C)[C@]3(C)CC[C@@]2(C(=O)C(=O)NC2(c3ccc(Cl)cc3)CC2)CC1=O | 25 nM | 17 nM | 8 nM | 23 nM | IC50 [5]: > 60 nM; IC50 [6]: 14 nM; Ratio [7]: 9.7; IC50 [8]: 5 nM; IC50 [9]: > 60 nM; IC50 [10]: 51 nM; IC50 [11]: > 60 nM; IC50 [12]: > 60 nM; CC50 [13]: > 10000 nM; IC50 [14]: > 60 nM; inhibition [15]: Active |
| CC(C)C1=C2[C@H]3CC[C@@H]4[C@@]5(C)CC[C@H](OC(=O)CC(C)(C)C(=O)O)C(C)(C)[C@@H]5CC[C@@]4(C)[C@]3(C)CC[C@@]2(C(=O)C(=O)NCc2ccc(Cl)cc2)CC1=O | 87 nM | 12 nM |  |  |  |
| COc1ccc(CNC(=O)C(=O)[C@@]23CC[C@]4(C)[C@H](CC[C@@H]5[C@@]6(C)CC[C@H](OC(=O)CC(C)(C)C(=O)O)C(C)(C)[C@@H]6CC[C@]54C)C2=C(C(C)C)C(=O)C3)cc1 | 8000 nM | 99 nM |  |  |  |
| CC(C)C1=C2[C@H]3CC[C@@H]4[C@@]5(C)CC[C@H](OC(=O)CC(C)(C)C(=O)O)C(C)(C)[C@@H]5CC[C@@]4(C)[C@]3(C)CC[C@@]2(C(=O)C(=O)NCc2ccc(C(F)(F)F)cc2)CC1=O | 1320 nM | 135 nM |  |  |  |
| CC(C)C1=C2[C@H]3CC[C@@H]4[C@@]5(C)CC[C@H](OC(=O)CC(C)(C)C(=O)O)C(C)(C)[C@@H]5CC[C@@]4(C)[C@]3(C)CC[C@@]2(C(=O)C(=O)NCCN2CCCC2)CC1=O | > 10000 nM | 1000 nM |  |  |  |
| CC[C@H](NC(=O)C(=O)[C@@]12CC[C@]3(C)[C@H](CC[C@@H]4[C@@]5(C)CC[C@H](OC(=O)CC(C)(C)C(=O)O)C(C)(C)[C@@H]5CC[C@]43C)C1=C(C(C)C)C(=O)C2)c1ccc(Cl)cc1 | 372 nM | 54 nM | 26 nM | 62 nM |  |
| CC(C)C1=C2[C@H]3CC[C@@H]4[C@@]5(C)CC[C@H](OC(=O)CC(C)(C)C(=O)O)C(C)(C)[C@@H]5CC[C@@]4(C)[C@]3(C)CC[C@@]2(C(=O)C(=O)NCc2ccncc2)CC1=O | > 10000 nM | 6200 nM |  |  |  |
| CC(C)C1=C2[C@H]3CC[C@@H]4[C@@]5(C)CC[C@H](OC(=O)CC(C)(C)C(=O)O)C(C)(C)[C@@H]5CC[C@@]4(C)[C@]3(C)CC[C@@]2(C(=O)C(=O)O)CC1=O |  | > 10000 nM |  |  |  |
| CC(C)C1=C2[C@H]3CC[C@@H]4[C@@]5(C)CC[C@H](OC(=O)CC(C)(C)C(=O)O)C(C)(C)[C@@H]5CC[C@@]4(C)[C@]3(C)CC[C@@]2(C(=O)C(=O)NCC2CCCCC2)CC1=O | 27 nM | 11 nM |  |  |  |
| CC(C)C1=C2[C@H]3CC[C@@H]4[C@@]5(C)CC[C@H](OC(=O)CC(C)(C)C(=O)O)C(C)(C)[C@@H]5CC[C@@]4(C)[C@]3(C)CC[C@@]2(C(=O)C(=O)Nc2ccc(F)cc2)CC1=O | 1800 nM | 130 nM |  |  |  |
| CC(C)C1=C2[C@H]3CC[C@@H]4[C@@]5(C)CC[C@H](OC(=O)CC(C)(C)C(=O)O)C(C)(C)[C@@H]5CC[C@@]4(C)[C@]3(C)CC[C@@]2(C(=O)C(=O)NCc2ccc(F)cc2)CC1=O | 202 nM | 16 nM |  |  |  |
| CC(C)C1=C2[C@H]3CC[C@@H]4[C@@]5(C)CC[C@H](OC(=O)CC(C)(C)C(=O)O)C(C)(C)[C@@H]5CC[C@@]4(C)[C@]3(C)CC[C@@]2(C(=O)C(=O)NC(C)(C)c2ccc(Cl)cc2)CC1=O | 17 nM | 19 nM | 11 nM | 17 nM |  |
| CNC(=O)C(=O)[C@@]12CC[C@]3(C)[C@H](CC[C@@H]4[C@@]5(C)CC[C@H](OC(=O)CC(C)(C)C(=O)O)C(C)(C)[C@@H]5CC[C@]43C)C1=C(C(C)C)C(=O)C2 | 6670 nM | 1320 nM |  |  |  |
| CC(C)C1=C2[C@H]3CC[C@@H]4[C@@]5(C)CC[C@H](OC(=O)CC(C)(C)C(=O)O)C(C)(C)[C@@H]5CC[C@@]4(C)[C@]3(C)CC[C@@]2(C(=O)C(=O)NC2(c3ccc(Cl)cc3)CCC2)CC1=O | 65 nM | 29 nM | 17 nM | 48 nM |  |
| CC(C)C1=C2[C@H]3CC[C@@H]4[C@@]5(C)CC[C@H](OC(=O)CC(C)(C)C(=O)O)C(C)(C)[C@@H]5CC[C@@]4(C)[C@]3(C)CC[C@@]2(C(=O)C(=O)NCc2ccc(Cl)cc2Cl)CC1=O | 193 nM | 37 nM |  |  |  |
| CC(C)C1=C2[C@H]3CC[C@@H]4[C@@]5(C)CC[C@H](OC(=O)CC(C)(C)C(=O)O)C(C)(C)[C@@H]5CC[C@@]4(C)[C@]3(C)CC[C@@]2(C(=O)C(=O)NCc2cccc(Cl)c2)CC1=O | 370 nM | 16 nM |  |  |  |
| C=C(C)[C@@H]1CC[C@]2(C(=O)O)CC[C@]3(C)[C@H](CC[C@@H]4[C@@]5(C)CC[C@H](OC(=O)CC(C)(C)C(=O)O)C(C)(C)[C@@H]5CC[C@]43C)[C@@H]12 [BEVIRIMAT] | 6510 nM | 270 nM | 252 nM | 383 nM | IC50 [6]: > 4000 nM; Ratio [7]: 52; IC50 [8]: > 10000 nM; IC50 [10]: > 10000 nM; inhibition [16]: Active |
| CC(C)C1=C2[C@H]3CC[C@@H]4[C@@]5(C)CC[C@H](OC(=O)CC(C)(C)C(=O)O)C(C)(C)[C@@H]5CC[C@@]4(C)[C@]3(C)CC[C@@]2(C(=O)C(=O)NC(C)(C)c2ccccc2)CC1=O | 19 nM | 18 nM |  |  |  |
| CC(C)C1=C2[C@H]3CC[C@@H]4[C@@]5(C)CC[C@H](OC(=O)CC(C)(C)C(=O)O)C(C)(C)[C@@H]5CC[C@@]4(C)[C@]3(C)CC[C@@]2(C(=O)C(=O)N[C@H](C)c2ccc(Cl)cc2)CC1=O | 25 nM | 18 nM | 5 nM | 25 nM |  |
| CC(C)C1=C2[C@H]3CC[C@@H]4[C@@]5(C)CC[C@H](OC(=O)CC(C)(C)C(=O)O)C(C)(C)[C@@H]5CC[C@@]4(C)[C@]3(C)CC[C@@]2(C(=O)C(=O)NC2CCCCC2)CC1=O | 329 nM | 28 nM |  |  |  |
| CC(C)C1=C2[C@H]3CC[C@@H]4[C@@]5(C)CC[C@H](OC(=O)CC(C)(C)C(=O)O)C(C)(C)[C@@H]5CC[C@@]4(C)[C@]3(C)CC[C@@]2(C(=O)C(=O)NCc2ccccc2Cl)CC1=O | 486 nM | 17 nM |  |  |  |
| CC(C)C1=C2[C@H]3CC[C@@H]4[C@@]5(C)CC[C@H](OC(=O)CC(C)(C)C(=O)O)C(C)(C)[C@@H]5CC[C@@]4(C)[C@]3(C)CC[C@@]2(C(=O)C(=O)NCCCN2CCCC2)CC1=O | 7500 nM | 1180 nM |  |  |  |
| CC(C)C1=C2[C@H]3CC[C@@H]4[C@@]5(C)CC[C@H](OC(=O)CC(C)(C)C(=O)O)C(C)(C)[C@@H]5CC[C@@]4(C)[C@]3(C)CC[C@@]2(C(=O)C(=O)NCc2c(Cl)cccc2Cl)CC1=O | 1070 nM | 85 nM |  |  |  |
| CC(C)C1=C2[C@H]3CC[C@@H]4[C@@]5(C)CC[C@H](OC(=O)CC(C)(C)C(=O)O)C(C)(C)[C@@H]5CC[C@@]4(C)[C@]3(C)CC[C@@]2(C(=O)C(=O)N[C@@H](C)c2ccc(Cl)cc2)CC1=O | 474 nM | 39 nM | 19 nM | 60 nM |  |
| Cc1ccc(NC(=O)C(=O)[C@@]23CC[C@]4(C)[C@H](CC[C@@H]5[C@@]6(C)CC[C@H](OC(=O)CC(C)(C)C(=O)O)C(C)(C)[C@@H]6CC[C@]54C)C2=C(C(C)C)C(=O)C3)cc1 | 664 nM | 251 nM |  |  |  |
| CC[C@@H](NC(=O)C(=O)[C@@]12CC[C@]3(C)[C@H](CC[C@@H]4[C@@]5(C)CC[C@H](OC(=O)CC(C)(C)C(=O)O)C(C)(C)[C@@H]5CC[C@]43C)C1=C(C(C)C)C(=O)C2)c1ccc(Cl)cc1 | 64 nM | 28 nM | 12 nM | 74 nM |  |
| CC(C)C1=C2[C@H]3CC[C@@H]4[C@@]5(C)CC[C@H](OC(=O)CC(C)(C)C(=O)O)C(C)(C)[C@@H]5CC[C@@]4(C)[C@]3(C)CC[C@@]2(C(=O)C(=O)N2CCC2)CC1=O | > 10000 nM | 5600 nM |  |  |  |
